Test results: PubChem BioAssay AID588363 (Broad Institute, 2011)
Activity calls are given as the source filed them.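 The calls were made as follows: active = compounds lowering polarization with half-effect concentration at most ten times their top valid dose; inconclusive = flat fit with 30 to 70 percent drop, or poor fit; inactive = the rest.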

Target: KSHV LANA C-terminal domain (residues 932-1162), DNA binding
Assay: KSHV LANA C-terminal domain DNA-binding blockers – biochemical, fluorescence polarization, MBP fusion, dry powder, dose response (AID 588363)
Details: MBP-C-LANA/LBS DNA binding

SMILES	AC50 [µM]
O=C(O)C1Nc2c(O)cc(Cl)c([N+](=O)[O-])c2C2C=CCC12 (configuration not stated)	13.2
O=C1/C(=C/c2ccco2)Oc2c1ccc(O)c2CN1CCCCC1	8.54
O=C(O)C1Nc2ccc(Br)cc2C2C=CCC12 (configuration not stated)	3.33
O=c1c(O)cccc2cc(O)c(O)c(O)c12	5.21
O=C(O)CCNc1ccc(NCCC(=O)O)c2c1C(=O)c1ccccc1C2=O	24.4
CC(=O)c1ccc2c(c1)C1C=CCC1C(C(=O)O)N2 (configuration not stated)	4.46

Other lines, results leading:

AC50 [µM]	SMILES
16.1	COC(=O)c1ccccc1NC(=O)CCS(=O)(=O)c1ccc(Br)cc1
6.54	CSc1ccc(/C=N/Nc2cccc(C(=O)O)c2)cc1
6.05	O=C(O)c1cc(N2N=C(C(F)(F)F)/C(=C/C=C/c3ccco3)C2=O)ccc1Cl
23.1	Nc1c(C(=O)Nc2ccccc2F)sc2nc(Cc3ccccc3)cc(C(F)(F)F)c12
20.6	O=C1CCCC(O)=C1N=Nc1ccc(C(=O)O)cc1
16.8	CCC(=O)Oc1ccc2c(c1)O/C(=C\c1ccco1)C2=O
31.2	CC1=NN(c2cccc(C(=O)O)c2)C(=O)/C1=C\C=C\c1ccco1

Same assay, conditions: MBP-C-LANA/LBS DNA binding, at 35 µM (top of the series)

activity change, negative = inhibition	SMILES
inactive	CN(C)S(=O)(=O)c1cc(C(=O)NC2CCSc3ccccc32)ccc1Cl (configuration not stated)
inactive	Nc1c(/C=C2\C=CC(=O)C(O)=C2)c(=O)nc2sc(CC(=O)N3CCCCC3)nn12
inactive	CC1(C)[C@@H](O[C@H]2O[C@H](C(=O)O)[C@@H](O)[C@H](O)[C@H]2O[C@@H]2O[C@H](C(=O)O)[C@@H](O)[C@H](O)[C@H]2O)CC[C@]2(C)[C@H]3C(=O)C=C4[C@@H]5C[C@@](C)(C(=O)O)CC[C@]5(C)CC[C@@]4(C)[C@]3(C)CC[C@@H]12
inactive	Clc1ccc(-c2nnc3sc(-c4ccc(Br)o4)nn23)cc1
